For test [1], the target named is Albumin (Bos taurus, UniProt P02769). Description: Counterscreen for inhibitors of T-cell receptor (TCR)-CD3 interaction: Fluorescence-based biochemical high throughput dose response assay to identify inhibitors of T-cell receptor (TCR)-CD3 interaction using a TAMRA-labeled BSA probe. The test is classed as functional. A general note: The purpose of a counterscreen is to sort out artefacts and off-target activity.

Test [2] is described as follows: human group III sPLA2 inhibitors, dose response, biochemical, QFRET, IC50 (AID 743457).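 Further: green fluorescence rise as the enzyme cleaves BODIPY PC-A2 in liposomes; potency for inhibition of the enzyme.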
Test [3] can be described thus: cells.
Test [4] addresses T1, Polyadenylate-binding protein 1 (Homo sapiens, UniProt P11940). Description: PABP1 MLLE–PAM2 binding inhibitor potency, dose response, biochemical, fluorescence polarization, FITC-PAM2 peptide (AID 602259). The test is classed as functional. Particulars: read-out: IC50_Mean.
Test [5] has as its target T1, Polyadenylate-binding protein 1. Description: PABP1 MLLE–PAM2 interaction inhibitors, dose response, miRNA deadenylation inhibitor project, biochemical, fluorescence polarization, Cy5-PAM2 peptide, secondary (AID 602260). The test is classed as functional. Particulars: read-out: IC50_Mean. In general terms: Polarisation of emitted light reports the rotation of a fluorescent probe.

Test [6] deals with Major prion protein (Homo sapiens, UniProt P04156). The format is functional, cell-based.
Test [7] deals with Streptococcus sp. 'group A'. Description: growth inhibition of control SK(-) GAS strain, dose response, counter-screen for streptokinase expression inhibitor project, luminescence, kanamycin, BacTiterGlo, confirmation (AID 1900). The format is functional, organism-based.
Test [8] deals with Streptococcus. Description: Group A Streptococcus viability loss, dose response, counter-screen for streptokinase expression inhibitor project, luminescence, BacTiterGlo (AID 1915).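 Further: potency for reduction of bacterial viability or growth.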 The format is functional, organism-based.
Test [9] deals with T2, Aminopeptidase N (Plasmodium falciparum FcB1/Columbia, UniProt O96935).
T2 sequence (O96935 whole entry): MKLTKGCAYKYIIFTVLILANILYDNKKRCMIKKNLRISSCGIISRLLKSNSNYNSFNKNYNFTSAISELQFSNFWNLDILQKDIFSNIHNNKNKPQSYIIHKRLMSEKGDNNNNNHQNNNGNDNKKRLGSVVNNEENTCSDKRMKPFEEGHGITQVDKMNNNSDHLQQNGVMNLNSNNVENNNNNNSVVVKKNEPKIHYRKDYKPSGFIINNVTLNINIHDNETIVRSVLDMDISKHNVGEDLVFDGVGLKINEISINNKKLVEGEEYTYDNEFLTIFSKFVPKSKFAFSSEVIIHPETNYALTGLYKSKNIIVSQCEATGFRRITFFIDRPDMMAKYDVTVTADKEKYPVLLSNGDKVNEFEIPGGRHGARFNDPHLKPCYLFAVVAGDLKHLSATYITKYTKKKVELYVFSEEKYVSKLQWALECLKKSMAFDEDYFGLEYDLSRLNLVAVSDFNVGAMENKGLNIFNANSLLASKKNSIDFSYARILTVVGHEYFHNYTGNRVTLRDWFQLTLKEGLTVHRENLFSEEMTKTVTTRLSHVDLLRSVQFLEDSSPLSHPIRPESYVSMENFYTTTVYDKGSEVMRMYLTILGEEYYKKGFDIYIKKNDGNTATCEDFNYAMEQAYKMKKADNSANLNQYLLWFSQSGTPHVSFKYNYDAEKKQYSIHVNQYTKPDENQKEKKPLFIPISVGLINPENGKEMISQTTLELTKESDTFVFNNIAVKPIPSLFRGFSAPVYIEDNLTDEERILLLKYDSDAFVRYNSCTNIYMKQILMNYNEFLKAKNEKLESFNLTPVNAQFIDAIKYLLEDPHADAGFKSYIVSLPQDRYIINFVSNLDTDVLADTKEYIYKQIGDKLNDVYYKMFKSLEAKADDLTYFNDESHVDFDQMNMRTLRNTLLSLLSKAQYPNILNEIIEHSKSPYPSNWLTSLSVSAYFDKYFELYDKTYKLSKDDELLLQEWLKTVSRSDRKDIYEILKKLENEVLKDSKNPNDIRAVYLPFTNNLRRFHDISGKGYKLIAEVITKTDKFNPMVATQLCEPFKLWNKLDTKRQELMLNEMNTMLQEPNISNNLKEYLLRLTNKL
Description: P. falciparum M1AAP inhibitors, biochemical, fluorogenic H-Leu-NHMec substrate, 1536-well (AID 1445). Also on record: species or system Plasmodium falciparum 3D7, 3D7.

For test [10], the target named is Cytochrome P450 2D6 (Homo sapiens, UniProt P10635).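 Further: CYP2D6 member of a cytochrome P450 panel assay.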
The nature of test [11]: HEK293T cytotoxicity, dose response, cytotoxicity control for miR-122 modulator project, cell-based, activator set, cherry-pick (AID 720690).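 Further: HEK293T human cells scored for general mammalian cytotoxicity.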 The test is classed as functional.
Test [12] has as its target T3, Protein skinhead-1 (Caenorhabditis elegans, UniProt P34707).
T3 sequence (P34707 whole entry): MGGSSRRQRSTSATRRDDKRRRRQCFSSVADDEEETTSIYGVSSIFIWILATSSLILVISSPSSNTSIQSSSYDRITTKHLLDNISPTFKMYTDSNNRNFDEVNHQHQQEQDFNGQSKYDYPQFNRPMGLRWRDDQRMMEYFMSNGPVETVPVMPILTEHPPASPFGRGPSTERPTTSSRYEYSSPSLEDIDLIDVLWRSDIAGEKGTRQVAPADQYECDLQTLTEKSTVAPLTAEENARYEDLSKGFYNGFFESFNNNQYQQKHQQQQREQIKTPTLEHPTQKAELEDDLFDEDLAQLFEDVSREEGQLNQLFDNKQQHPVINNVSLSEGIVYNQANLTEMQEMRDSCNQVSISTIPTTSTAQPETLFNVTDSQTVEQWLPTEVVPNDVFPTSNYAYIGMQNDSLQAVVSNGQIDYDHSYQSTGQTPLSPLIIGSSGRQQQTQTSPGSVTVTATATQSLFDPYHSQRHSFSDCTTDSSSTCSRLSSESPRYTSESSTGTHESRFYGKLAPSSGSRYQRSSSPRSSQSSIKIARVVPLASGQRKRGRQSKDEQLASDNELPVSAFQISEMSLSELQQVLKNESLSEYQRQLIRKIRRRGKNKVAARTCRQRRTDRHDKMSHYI
The format is functional.

Test [13] has as its target T4, Oxysterols receptor LXR-beta (Homo sapiens, UniProt P55055).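 Further: Cell-based luminescence dose-response assay of agonist activity at LXR, run as a confirmatory counterscreen to a daf-12 agonist screen; HEK293 cells with Gal4-LXR fusion and GAL4-driven luciferase reporter; agonist potency from rising luciferase signal of a Gal4-LXR reporter.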
T4 sequence (P55055 whole entry): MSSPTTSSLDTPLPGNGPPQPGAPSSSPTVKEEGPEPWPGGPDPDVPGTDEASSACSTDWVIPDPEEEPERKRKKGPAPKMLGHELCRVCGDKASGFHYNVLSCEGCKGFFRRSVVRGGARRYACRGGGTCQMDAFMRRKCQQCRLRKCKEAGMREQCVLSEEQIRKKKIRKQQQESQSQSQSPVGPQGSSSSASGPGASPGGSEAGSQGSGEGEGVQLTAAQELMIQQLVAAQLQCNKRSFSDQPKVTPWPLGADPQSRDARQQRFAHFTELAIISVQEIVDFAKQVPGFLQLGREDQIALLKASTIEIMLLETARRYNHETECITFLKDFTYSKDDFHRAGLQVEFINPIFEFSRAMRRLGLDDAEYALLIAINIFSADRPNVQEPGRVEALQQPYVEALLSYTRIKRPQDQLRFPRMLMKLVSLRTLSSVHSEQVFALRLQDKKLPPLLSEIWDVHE
The format is functional, cell-based.

Test [14] in a line: cells. This is another data set of the same source.
The target in test [15] is T5, Rac GTPase-activating protein 1 (Homo sapiens, UniProt Q9H0H5).
T5 sequence (Q9H0H5 whole entry): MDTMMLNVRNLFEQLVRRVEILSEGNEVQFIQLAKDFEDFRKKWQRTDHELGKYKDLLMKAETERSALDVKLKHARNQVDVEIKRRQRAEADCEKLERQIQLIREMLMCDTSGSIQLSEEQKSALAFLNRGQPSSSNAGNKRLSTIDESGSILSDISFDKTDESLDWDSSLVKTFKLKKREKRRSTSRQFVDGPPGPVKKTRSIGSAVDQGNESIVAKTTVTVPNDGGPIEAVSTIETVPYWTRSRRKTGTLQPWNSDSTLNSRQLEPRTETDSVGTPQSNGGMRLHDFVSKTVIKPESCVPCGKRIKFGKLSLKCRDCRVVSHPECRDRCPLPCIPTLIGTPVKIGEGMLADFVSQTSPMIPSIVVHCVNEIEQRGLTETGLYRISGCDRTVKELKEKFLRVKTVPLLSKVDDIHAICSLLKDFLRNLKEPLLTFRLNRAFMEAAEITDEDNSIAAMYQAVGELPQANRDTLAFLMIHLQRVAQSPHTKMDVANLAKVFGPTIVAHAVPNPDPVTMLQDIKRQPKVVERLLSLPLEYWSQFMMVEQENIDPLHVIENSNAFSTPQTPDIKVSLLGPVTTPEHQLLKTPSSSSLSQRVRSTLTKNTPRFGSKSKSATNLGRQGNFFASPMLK
Description: MgcRacGAP GTPase-activating activity inhibitors, confirmation, biochemical, ADP Hunter fluorescence, primary and confirmatory (AID 624330). The test is classed as functional.

Test [16] concerns the target Peroxisome proliferator-activated receptor gamma/Nuclear receptor coactivator 2 (Homo sapiens, UniProt P37231). Description: TR-FRET dose response biochemical High Throughput Screening assay for agonists of the steroid receptor coactivator 2 (SRC-2) recruitment by the peroxisome proliferator-activated receptor gamma (PPAR gamma): non-selective agonists. [Related pubchem assays: 1297, 1032 ]. The format is functional. A general note: TR-FRET usually uses a lanthanide donor and a delayed reading to cut background.

Test [17] has as its target Peroxisome proliferator-activated receptor gamma/Nuclear receptor coactivator 1 (Homo sapiens, UniProt P37231). Description: TR-FRET dose response biochemical High Throughput Screening assay for agonists of the steroid receptor coactivator 1 (SRC-1) recruitment by the peroxisome proliferator-activated receptor gamma (PPAR gamma): non-selective agonists. [Related pubchem assays (depositor defined):AID1300, AID1808, AID504735, AID631]. The format is protein assay.

Test [18] has as its target Peroxisome proliferator-activated receptor gamma/Nuclear receptor coactivator 3 (Homo sapiens, UniProt P37231). Description: TR-FRET dose response biochemical High Throughput Screening assay for agonists of the steroid receptor coactivator 3 (SRC-3) recruitment by the peroxisome proliferator-activated receptor gamma (PPAR gamma): non-selective agonists. [Related pubchem assays: 1301 (Confirmation screen.), 1048 (Primary screen.)]. The test is classed as functional.

In test [19] the target is Cytochrome P450 2C9 (Homo sapiens, UniProt P11712).
In test [20] the target is Nonstructural protein 1 (Influenza A virus, UniProt Q194T2). The format is functional, Influenza A virus (A/California/07/2009(H1N1)).

Calls of active or inactive are those of the source.

By EC50 is commonly meant the midpoint of the concentration-response curve. One may read the AC50 as the concentration giving half of the maximal activity seen.

With `COc1cccc(OCC(=O)NNC(=O)c2ccc3ccccc3c2O)c1`, the IC50 is > 94.1 µM (inactive) in test [1] and > 122 µM (inactive) in [2].
Regarding `O=C(CSc1ncnc2ccccc12)NCc1ccco1`, the IC50 in [3] was > 138 µM (inactive); in [4], > 66 µM (inactive); in [5], > 66 µM (inactive); in test [6] it was 6.83 µM (active).
With `Cc1[nH]n(-c2ccccc2)c(=O)c1N=Nc1ccccc1O`, the concentration for a half-maximal effect (EC50) was 1.48 µM (active) in test [7] and 2.12 µM (active) in test [8]. For the same compound, the IC50 was > 94.1 µM (inactive) in [1] and < 1 µM (active) in test [9].
With `Clc1cccc(Nc2ncnc3ccc(Br)cc23)c1`, the IC50 in [3] was 122 µM (inactive); in test [6] it was 6.28 µM (active). For the same compound, the AC50 in test [10] was 31.6 µM (inconclusive).
On to `CCOc1cc(NC(=O)C(C)C)c(OCC)cc1N=C(S)NCc1ccccc1`, for which the IC50 in test [2] is > 122 µM (inactive).
As for `COCC(=O)N1[C@H](CO)[C@@H](c2ccccc2)[C@H]1CNC(=O)c1ccccn1`, the AC50 in [11] was 37.2 µM (active).
For `CCN(CC)S(=O)(=O)c1ccc(NC(=O)CSc2ncnc3ccccc23)cc1`, the IC50 in test [3] is > 138 µM (inactive); in test [6], 7.17 µM (active).
On to `O=C(/C=C\Nc1cccc(F)c1)c1cccs1`, for which the IC50 in test [12] is 28.1 µM (active). For the same compound, the EC50 in test [13] and in test [14] was > 67.5 µM (inactive) in each case.
In the case of `CC(C)c1nc(SCC(=O)N2CC(=O)Nc3ccccc32)c2ccccc2n1`, the IC50 is 67.3 µM (inactive) in test [3] and 2.41 µM (active) in [6].
In the case of `Cc1ccc(Nc2nnc(S)s2)c(C)c1`, the IC50 in [2] is > 122 µM (inactive); in [15] it was 154 µM (active).
In the case of `c1ccc(Cc2nnc(Sc3ccccc3)c3ccccc23)cc1`, the EC50 is 2.35 µM (active) in test [16], > 79.4 µM (inactive) in test [17] and > 79.4 µM (not active) in test [18]. In addition, the figures for the IC50 in [3] and in test [6] were 64 µM (inactive) and 6.51 µM (active), respectively. The half-maximal activity concentration (AC50) in test [19] is 25.1 µM (inconclusive).
Take `COc1ccc(-c2cc3ccccc3c(=O)o2)cc1`: the EC50 in [13] and in [14] was > 67.5 µM (inactive) throughout.
Consider `O=C1c2ccccc2C(=O)c2c1cccc2N1CCOCC1`, for which the IC50 in [20] was 19.7 µM (active); in test [2], > 122 µM (inactive).
For `O=C(Nc1ccc(Cl)cc1)N1C[C@H]2[C@@H](c3ccccc31)[C@H](CO)N2CC1CCCCC1`, in test [11], the AC50 was 28.7 µM (active).

Values taken from ChEMBL document CHEMBL1201862, “PubChem BioAssay data set” (2004).
